Laboratory results as given in patent publication US11466044B2 (WAYNE STATE UNIVERSITY, priority 2017, dated 2022).
≈ marks a conversion by molar mass, not a printed value.

Key:
[1] = test system: MRSA; test: MIC by broth microdilution, MRSA isolates; format: cell-based; conditions: for MIC AG038 MRSA: clinical isolate AG038; for MIC AG039 MRSA AAC(6′)-I ANT(4′)-I: clinical isolate AG039, AAC(6′)-I ANT(4′)-I; for MIC AG042 MRSA AAC(6′)-I ANT(4′)-I APH(2′): clinical isolate AG042, AAC(6′)-I ANT(4′)-I APH(2′); for MIC AG044 MRSA: clinical isolate AG044
[2] = test system: A1555G mutant mitochondrial ribosome (human chimeric); test: in-vitro translation assay, human chimeric ribosomes, A1555G mutant mitochondrial decoding site; format: biochemical; conditions: human mitochondrial decoding site with A1555G point mutation; read-out: IC50 Mitoch. A1555G
Description: (§1) The antiribosomal activity of these compounds was investigated with cell-free translation assays using both wild type bacterial ribosomes and hybrid ribosomes carrying eukaryotic decoding A sites enabling the prediction of selectivity.

[3] = test system: P aeruginosa; test: MIC by broth microdilution, P aeruginosa isolates; format: cell-based, Pseudomonas aeruginosa; conditions: for MIC AG031 P. aer. APH(3′)-II: clinical isolate AG031, APH(3′)-II; for MIC AG032 P. aer. APH(3′)-II: clinical isolate AG032, APH(3′)-II
[4] = test system: E coli wild type; test: MIC by broth microdilution, wild type E coli; format: cell-based; conditions: for MIC AG001 E. coli WT: clinical isolate AG001, WT; for MIC AG055 E. coli WT: clinical isolate AG055, WT; for MIC pH430 WT: E. coli strain pH430, WT
[5] = test system: E coli carrying specific resistance determinants; test: MIC by broth microdilution, E coli carrying specific resistance determinants; format: cell-based; conditions: for MIC AG003 E. coli AAC(3)-II: clinical isolate AG003, AAC(3)-II; for MIC AG036 ANT(4′,4′′): E. coli strain AG036, ANT(4′,4′′); for MIC AG037 APH(3′)-III: E. coli strain AG037, APH(3′)-III; for MIC AG103 armA: E. coli strain AG103, armA; for MIC pH421 APH(3)-I: E. coli strain pH421, APH(3)-I; for MIC pH422 APH(3′)-II: E. coli strain pH422, APH(3′)-II; for MIC pH423 APH(3′)-VI: E. coli strain pH423, APH(3′)-VI; for MIC pH432 ANT(4′): E. coli strain pH432, ANT(4′)
[6] = test system: rabbit reticulocyte ribosomes; test: in-vitro translation assay, rabbit reticulocyte ribosomes; format: biochemical; conditions: mammalian cytosolic ribosomes (rabbit)
[7] = test system: mitochondrial ribosome (human chimeric); format: biochemical; conditions: ribosomes with a human mitochondrial decoding site; read-out: IC50 Mitoch.
Description: as §1

[8] = test system: cytosolic ribosome (human chimeric); format: biochemical; conditions: ribosomes with a human cytosolic decoding site; read-out: IC50 Cytosolic
Description: as §1

[9] = test system: wild type bacterial ribosomes; test: in-vitro translation assay, bacterial ribosomes; format: biochemical; conditions: Mycobacterium smegmatis ribosomes; read-out: IC50 Bacterial
Description: as §1

Row | Compound | MIC AG038 MRSA [1] [µg/mL] | MIC AG039 MRSA AAC(6′)-I ANT(4′)-I [1] [µg/mL] | MIC AG042 MRSA AAC(6′)-I ANT(4′)-I APH(2′) [1] [µg/mL] | MIC AG044 MRSA [1] [µg/mL] | IC50 [2] [µM] | MIC AG031 P. aer. APH(3′)-II [3] [µg/mL] | MIC AG032 P. aer. APH(3′)-II [3] [µg/mL] | MIC AG001 E. coli WT [4] [µg/mL] | MIC AG055 E. coli WT [4] [µg/mL] | MIC AG003 E. coli AAC(3)-II [5] [µg/mL] | IC50 [6] [µM] | IC50 [7] [µM] | IC50 [8] [µM] | IC50 [9] [µM] | MIC pH430 WT [4] | MIC AG036 ANT(4′,4′′) [5] [µg/mL] | MIC AG037 APH(3′)-III [5] [µg/mL] | MIC AG103 armA [5] [µg/mL] | MIC pH421 APH(3)-I [5] [μg/ml] | MIC pH422 APH(3′)-II [5] [μg/ml] | other results
1 | CCNC1C(OC2C(N)CC(N)C(O)C2OC2OC(CO)C(OC3OC(CN)C(O)C(O)C3N)C2O)OC(CN)C(O)C1O (stereo not shown) [DC-172] | 0.5 (≈ 0.778 µM) | >32 | >32 | 1 (≈ 1.56 µM) | 1.6 | >64 | >64 | 1 to 2 | 1 (≈ 1.56 µM) | 1 (≈ 1.56 µM) | 45 | 11 | 43 | 0.01 |  |  |  |  |  |  | 
2 | NCC1OC(OC2C(CNC(N)=O)OC(OC3C(O)C(N)CC(N)C3OC3OC(CO)C(O)C(O)C3N)C2O)C(N)C(O)C1O (stereo not shown) [DC141] | 4 to 8 | >128 | >128 | 4 (≈ 6.08 µM) | 28 | >128 | >128 | 8 (≈ 12.2 µM) | 4 (≈ 6.08 µM) | 4 (≈ 6.08 µM) | 29 | 70 | 89 | 0.03 |  |  |  |  |  |  | 
3 | NC[C@H]1O[C@H](O[C@H]2[C@H](O[C@@H]3O[C@H](CO)[C@@H](O)[C@H]3O)[C@@H](O)[C@H](N)C[C@@H]2N)[C@H](N)C[C@@H]1O [DC047] | 8 (≈ 18.2 µM) | >128 | >128 | 8 to 16 | 119 | 4 (≈ 9.12 µM) | 4 (≈ 9.12 µM) | 8 to 16 | 8 to 16 | 8 (≈ 18.2 µM) | 157 | 325 | 293 | 0.1 |  |  |  |  |  |  | 
4 | CC(C)(O)[C@H]1O[C@H](O[C@H]2[C@H](O[C@@H]3O[C@H](CO)[C@@H](O[C@H]4O[C@@H](CN)[C@@H](O)[C@H](O)[C@H]4N)[C@H]3O)[C@@H](O)[C@H](N)C[C@@H]2N)[C@H](N)[C@@H](O)[C@@H]1O [DC159] | 8 to 16 | >128 | >128 | 4 to 8 | 87 | >128 | >128 | 8 (≈ 12.4 µM) | 8 (≈ 12.4 µM) | 8 (≈ 12.4 µM) | 15 | 211 | 30 | 0.04 | 1-2 μg/ml | 16 to 32 | >64 | 4 to 8 | >64 | >64 | MIC pH423 APH(3′)-VI [5]: 8 μg/ml; MIC pH432 ANT(4′) [5]: 2 μg/ml
5 | CC(N)C1OC(OC2C(N)CC(N)C(O)C2OC2OC(CO)C(OC3OC(CN)C(O)C(O)C3N)C2O)C(N)C(O)C1O (stereo not shown) [DC166] | 2 (≈ 3.18 µM) | >128 | >128 | 1 (≈ 1.59 µM) | 1 | 128 to 256 | 128 (≈ 204 µM) | 2 (≈ 3.18 µM) | 2 (≈ 3.18 µM) | 2 (≈ 3.18 µM) | 48 | 9 | 26 | 0.01 | 0.5 μg/ml | 16 (≈ 25.5 µM) | >64 | 1 (≈ 1.59 µM) | >32 | >32 | MIC pH414 AAC(6′)-I ([5]; E. coli strain pH414, AAC(6′)-I): 0.5 μg/ml; MIC pH415 AAC(6′)-II ([5]; E. coli strain pH415, AAC(6′)-II): 1-2 μg/ml; MIC pH423 APH(3′)-VI [5]: >32 μg/ml; MIC pH432 ANT(4′) [5]: 0.5 μg/ml
